# Laboratory results from patent US9339508B2, “Use of 3-methoxy-pregnenolone for the preparation of a drug for treating a traumatic brain injury” (MAPREG, priority 2003, dated 2016).
# How the values were obtained:
# Synaptophysin = experiment: Western blot of synaptophysin in cortex and hippocampus after CCI; assay type: in vivo, rat; conditions: day 35, 20 mg/kg, first injection 2 h post-trauma, injured hippocampus
# Procedure: (§1) CCI was performed with an electromagnetic impact device as described (MyNeurolab, St. Louis, Mo.; Brody et al, 2007). Anesthesized rats were subjected to a single right lateral CCI, with the following parameters impact centered 4.0 mm anterior to lambda and 4.5 mm […] of midline, within the craniotomy of the animal. The impact was set at a velocity of 4 m/s with a sustained depression of 200 ms, using a 5.0 mm tip.
# Samples were analyzed by Western-blot at day 35 post-trauma (D35) to evaluate the effects of MAP4343 on: MAP2 (the target of MAP4343 and a modulator of microtubule function), the post-synaptic markers PSD95 and spinophilin, the pre-synaptic marker synaptophysin, and the axonal growth/integrity marker […].
# Western blot was performed on cortex and hippocampus of TBI-injured animals receiving the first injection of MAP4343 (at 10 mg/kg or 20 mg/kg) or vehicle (sesame oil) 2 h after injury.
# The expression level of various neuronal brain markers of plasticity was measured at day 35 post-trauma by western-blots in the cortex and hippocampus of left uninjured and right injured cerebral hemispheres of CCI traumatized animals receiving either vehicle (sesame oil, CCI-D0) or 3-methoxy-PREG (MAP4343) at 10 mg/kg (CCI-D1) or 20 mg/kg (CCI-D2), with first MAP4343 injection 2 h post-trauma.
# [1] = target: T1, human progesterone receptor (PR) (Homo sapiens, UniProt P06401); experiment: Test of progesterone receptor agonist activity (luciferase transactivation, HEK293T); assay type: cell-based; conditions: 24 hours, increasing amounts
# T1 construct: expressed in transfected cells; host or cells: HEK293T cells
# T1 sequence (P06401 1-933): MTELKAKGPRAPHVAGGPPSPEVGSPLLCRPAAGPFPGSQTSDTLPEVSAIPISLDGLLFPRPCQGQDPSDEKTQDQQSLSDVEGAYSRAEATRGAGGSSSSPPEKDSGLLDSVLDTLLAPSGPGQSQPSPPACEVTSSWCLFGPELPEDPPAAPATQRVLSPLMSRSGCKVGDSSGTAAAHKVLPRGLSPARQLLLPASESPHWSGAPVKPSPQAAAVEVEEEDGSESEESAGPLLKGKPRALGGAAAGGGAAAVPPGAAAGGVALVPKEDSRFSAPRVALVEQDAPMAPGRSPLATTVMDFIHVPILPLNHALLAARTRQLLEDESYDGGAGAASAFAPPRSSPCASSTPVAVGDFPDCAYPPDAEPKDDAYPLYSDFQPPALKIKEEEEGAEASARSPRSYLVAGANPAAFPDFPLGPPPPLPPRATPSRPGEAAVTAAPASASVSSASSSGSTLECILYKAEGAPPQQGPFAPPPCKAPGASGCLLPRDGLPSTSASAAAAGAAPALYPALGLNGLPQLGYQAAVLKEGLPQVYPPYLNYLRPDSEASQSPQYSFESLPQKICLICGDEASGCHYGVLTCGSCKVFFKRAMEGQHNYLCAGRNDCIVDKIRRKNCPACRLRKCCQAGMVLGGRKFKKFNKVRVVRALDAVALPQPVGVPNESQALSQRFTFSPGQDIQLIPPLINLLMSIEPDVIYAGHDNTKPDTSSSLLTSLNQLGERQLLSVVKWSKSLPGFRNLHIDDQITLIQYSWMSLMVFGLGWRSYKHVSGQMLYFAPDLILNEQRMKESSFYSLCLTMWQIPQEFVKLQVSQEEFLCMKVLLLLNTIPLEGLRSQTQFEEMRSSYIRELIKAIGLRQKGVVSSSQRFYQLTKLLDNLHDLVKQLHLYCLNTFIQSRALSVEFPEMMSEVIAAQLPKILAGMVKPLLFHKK
# Procedure: The main experimental setting used is the following: HEK293T cells were transiently transfected, using calcium phosphate precipitation technology, with expression receptors pSG5hPR (which permits expression of human progesterone receptor (PR)), pFC31-luc (contains the luciferase gene under the control of the MTV promoter, which is in turn activated by binding of a progestin to progesterone receptor) and pcbetagal (which permits expression of betagalactosidase), and cultured during 24 hours with increasing amounts of various compositions: • 1. […] Test of progesterone receptor […] activity: transfected cells were cultured with progesterone (1 nM) and increasing amounts of RU486 (a well-known progesterone receptor antagonist) or 3-methoxy-pregnenolone. • With this setting, a compound with progesterone receptor antagonist activity competes with progesterone for the occupation of progesterone receptor and results in a progressive loss of transactivation activity when the amount of this compound is increased compared to progesterone. Results
# [2] = Neurosteroids and 43B levels in rat plasma and hippocampus; conditions: 3 h after 10 mg/kg subcutaneously
# PC12 cell line = experiment: Cellular toxicity on the PC12 cell line; assay type: cell-based, rat; conditions: concentrations as high as solubility limits
# Procedure: Cellular toxicity tests are carried out routinely on the PC12 cell line.
# CCI traumatized animals = experiment: Water Exploration Test (WET) after Controlled Cortical Impact (CCI); assay type: in vivo, rat; design: key to Entry number in CZ, Conclusion vs. CCI-D0: ↓: decrease of analyzed variable with p < 0.05; ?: stability of analyzed variable; ↑↑: increase in analyzed variable with p < 0.01; conditions: Day 27; 20 mg/kg (CCI-D2)
# Procedure: as §1
# The less anxious is a rat, the more time it will, spend “floating” (null velocity) in the central zone (see Fares-2009).
# More precisely, a circular tank (180 cm diameter, 60 cm high) is filled with water maintained at 27° C. to a depth of 40 cm. The water is made opaque by adding black gouache, allowing the VideoTrack system (ViewPoint) to detect the white-coloured rat. This tank is divided into 4 identical quadrants (6,358 cm2 each) using two 180 cm long opaque plastic separators. In each quadrant, one rat is introduced with its head facing the corner between the separator and the tank's wall. It is noteworthy to emphasize that 4 rats can be tested simultaneously using the 4 quadrants. […] Thus, the distance, the number of entries, the time spent, and the velocity profile in the CZ are measured to assess anxiety-like behaviour. […]
# The effect of 3-methoxy-PREG (MAP4343) on anxiety induced by trauma was analyzed using the WET test.
compound,measurement,setting,value
"CO[C@H]1CC[C@@]2(C)C(=CC[C@H]3[C@@H]4CC[C@H](C(C)=O)[C@@]4(C)CC[C@@H]32)C1 [3-methoxy-PREG, 3β-methoxy-pregna-5-ene-20-one]",Synaptophysin expression,Synaptophysin,increase in Synaptophysin expression in injured hippocampus
same,progesterone receptor agonist activity (transactivation),[1],does not have progesterone receptor agonist activity
same,conversion to PREG or PROG,[2],not converted back to PREG or metabolized to PROG
same,cellular toxicity,PC12 cell line,do not demonstrate toxicity
same,"Entry number in CZ, Conclusion vs. CCI-D0",CCI traumatized animals,↑↑
same,"Time spent in CZ, Conclusion vs. CCI-D0",CCI traumatized animals,↑
